In ChEMBL document CHEMBL1201862, “PubChem BioAssay data set” (2004):
Calls of active or inactive are those of the source.

Assays:
cells [1] = format: functional, cell-based
cells [2] = format: functional, cell-based; remark: listed apart in the source
[3] = molecular target: T1, Trace amine-associated receptor 1 (Homo sapiens, UniProt Q96RJ0); assay: Counterscreen for agonists of the human trace amine associated receptor 1 (hTAAR1): Fluorescence-based cell-based high throughput dose response assay to identify hTAAR1 agonist that also desensitize TAAR1 receptor response.; format: functional
T1 sequence (Q96RJ0 whole entry): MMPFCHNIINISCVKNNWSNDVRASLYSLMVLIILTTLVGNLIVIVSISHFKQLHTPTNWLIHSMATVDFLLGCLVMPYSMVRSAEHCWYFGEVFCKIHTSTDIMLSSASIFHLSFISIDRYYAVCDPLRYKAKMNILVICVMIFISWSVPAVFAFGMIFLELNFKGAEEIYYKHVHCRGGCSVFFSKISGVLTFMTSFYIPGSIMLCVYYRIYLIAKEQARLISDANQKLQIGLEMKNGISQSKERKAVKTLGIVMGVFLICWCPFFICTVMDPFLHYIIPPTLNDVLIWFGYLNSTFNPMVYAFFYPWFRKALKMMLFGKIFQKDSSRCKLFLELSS

[4] = molecular target: T1, Trace amine-associated receptor 1; assay: Fluorescence-based cell-based high throughput dose response assay to identify agonists of the human trace amine associated receptor 1 (TAAR1).; format: functional
[5] = T. cruzi growth inhibition in host cells, dose response, cell-based, plate reader, dry powder, set 2 (AID 652275); format: functional
[6] = CEM21 lymphoblast cell cytotoxicity, dose response, cytotoxicity control for viral fusion inhibitor project, CellTiter-Glo luminescence, cherry-picked (AID 652042); format: functional, cell-based;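 also: potency for signal decrease meaning cytotoxicity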
[7] = ZM109 Env clade C HIV-1 fusion inhibitors, dose response, HeLa effector, CEM target cells, luciferase, cherry-pick (AID 652058); format: functional, cell-based
[8] = inhibitors of clade B AD8 Env fusion, dose response, cell-based, cherry-pick (AID 652062); format: functional;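 also: luciferase signal from cell-cell fusion driven by HIV-1 clade B AD8 Env; potency is for inhibitors of fusion seen as a drop in luminescence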
[9] = inhibitors of HIV Env-driven cell fusion, dose response, cherry-pick (AID 652057); format: functional, cell-based
Cryptococcus neoformans = assay: PubChem AID 686997; format: functional, organism-based
HepG2 = assay: HepG2 Cytotoxicity Assay Measured in Cell-Based System Using Plate Reader - 7071-02_Inhibitor_Dose_CherryPick_Activity.; format: functional; details: Homo sapiens
HeLa = assay: HeLa cell cytotoxicity, dose response, cytotoxicity control, ATP luminescence, cherry-pick samples (AID 687004); format: functional, cell-based; details: Homo sapiens
[10] = HepG2 cell cytotoxicity, dose response, cytotoxicity control for Shn3 inhibitor project, CellTiter-Glo, cherry-picked (AID 624134); format: functional, cell-based
[11] = control 3'UTR Renilla luciferase suppression, dose response, counter-screen for Shn3 inhibitor project, cell-based, Clone20-Shn3RL, cherry-picked (AID 624133); format: functional
[12] = reduction of Shn3 3'UTR firefly luciferase signal, dose response, Schnurri-3 inhibitor project, cell-based, Clone20 osteoblasts, cherry-pick, set 2 (AID 720490); format: functional;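 also: actives lower the luminescence signal as inhibitors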
[13] = inhibitors of control Renilla luciferase reporter, dose response, counter-screen for Shn3 3'UTR targeting project, Clone20-Shn3RL cells, dual-Glo, cherry-pick, set 2 (AID 720724); format: functional, cell-based; details: Dual-Go Shn3RL
[14] = Shn3 3'UTR reporter inhibitors, dose response, cell-based, Clone20 osteoblasts, firefly luciferase, cherry-picked (AID 624132); format: functional;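 also: firefly luciferase luminescence from reporter carrying the Shn3 3'UTR in osteoblasts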
[15] = T. cruzi intracellular amastigote growth inhibition, dose response, imaging, CA-I/72 strain, bovine embryo skeletal muscle, dry powder (AID 651885); format: functional, cell-based
[16] = Counterscreen for […] of the human trace amine associated receptor 1 (TAAR1): Fluorescence-based cell-based high throughput dose response assay to identify nonselective Ga16 agonists.; format: functional
[17] = molecular target: T1, Trace amine-associated receptor 1; assay: Fluorescence-based cell-based high throughput dose response assay to identify antagonists of the human trace amine associated receptor 1 (TAAR1).; format: functional
[18] = molecular target: T1, Trace amine-associated receptor 1; assay: Counterscreen for antagonists of the human trace amine associated receptor 1 (hTAAR1): Fluorescence-based cell-based high throughput dose response assay to identify TAAR1 Agonists.; format: functional
[19] = Counterscreen for antagonists of the human trace amine associated receptor 1 (hTAAR1): Fluorescence-based cell-based high throughput dose response assay to identify nonselective Ga16 antagonists.; format: functional
[20] = molecular target: Fructose-bisphosphate aldolase (Mycobacterium tuberculosis, UniProt P9WQA3); assay: Fluorescence-based biochemical high throughput dose response assay for inhibitors of the fructose-bisphosphate aldolase (FBA) of M. tuberculosis.; format: functional
Sequence of Fructose-bisphosphate aldolase (P9WQA3 whole entry): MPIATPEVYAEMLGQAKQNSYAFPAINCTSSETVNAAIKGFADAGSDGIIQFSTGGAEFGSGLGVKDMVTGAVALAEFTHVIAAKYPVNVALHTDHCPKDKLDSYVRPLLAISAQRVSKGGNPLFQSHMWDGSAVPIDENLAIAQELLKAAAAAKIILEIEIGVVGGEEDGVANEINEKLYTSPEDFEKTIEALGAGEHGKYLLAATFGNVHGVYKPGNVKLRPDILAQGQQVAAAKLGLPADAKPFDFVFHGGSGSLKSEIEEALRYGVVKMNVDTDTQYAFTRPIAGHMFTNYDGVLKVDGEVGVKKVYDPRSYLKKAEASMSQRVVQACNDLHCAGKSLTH

Protein Tat = Protein Tat (Human immunodeficiency virus type 1 group M subtype B (isolate HXB2)(HIV-1), UniProt P04608); format: functional;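 also: tat binding to TAR RNA read out by fluorescence polarization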
Sequence of Protein Tat (P04608 whole entry): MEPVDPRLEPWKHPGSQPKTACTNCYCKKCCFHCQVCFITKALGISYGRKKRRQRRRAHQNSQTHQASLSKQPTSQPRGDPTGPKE

[21] = inhibitors of intracellular T. cruzi replication, confirmation, NIH3T3 host cells, beta-gal luminescence (AID 2044); format: functional, cell-based;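 also: intracellular parasites grown in NIH/3T3 mouse fibroblasts as host cells; luminescent beta-galactosidase reporter signal from transgenic T. cruzi replicating inside host cells; inhibitors lower the luminescence signal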
[22] = cytotoxicity toward NIH3T3 fibroblasts, dose response, counter-screen, cell-based, ATP luminescence, mouse fibroblasts (AID 2010); format: functional;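 also: cells exposed to compound for about 90 hours before reading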
[23] = HEK293T cytotoxicity, dose response, cytotoxicity control for miR-122 modulator project, cell-based, inhibitor set, cherry-pick, set 2 (AID 720697); format: functional

For `CCC(C)(C)n1nnnc1C(c1ccc(O)cc1)N1CCc2ccccc2C1` (configuration not stated), the IC50 (cells [1]) was > 29.9 µM (inactive), the EC50 (cells [2]) was > 29.9 µM (inactive) and the IC50 [3] was 1.26 µM (active). The EC50 [4] was 0.333 µM (active).
For `CC(c1ccc(Cl)cc1)N1CC2(C1)CN(C(C)C)C(=O)c1cccc(NC(=O)c3ccncc3)c1O2` (configuration not stated), the AC50 [5] was 0.556 µM (active).
In the case of `Cc1nc2ccc(NC(=O)c3ccc(Cl)c(S(=O)(=O)N(C)c4ccccc4)c3)cc2s1`, the AC50 [6] is reported as 58.6 µM (active), the AC50 [7] is reported as 3.88 µM (active) and the AC50 [8] is reported as 3.19 µM (active). The AC50 [9] was 35.5 µM (active).
With `CCOC(=O)NC(=S)Nc1ccc(C(C)(C)C)cc1Br` the AC50 (Cryptococcus neoformans) was > 70 µM (inactive), the AC50 (HepG2) was 18.1 µM (active) and the AC50 (HeLa) was > 52 µM (inactive).
With `Cc1nc(NC(C)c2ccccc2)c2oc3ccccc3c2n1` (configuration not stated) the AC50 [10] was 35.1 µM (active), the AC50 [11] was 24 µM (active) and the AC50 [12] was 3.44 µM (active). The AC50 [13] was 46.5 µM (active) and the AC50 [14] was 3.06 µM (active).
In the case of `CC(C)N1C[C@H](C)[C@@H](CN(C)C(=O)OC(C)(C)C)Oc2c(C(=O)O)cccc2C1=O`, the IC50 [15] is reported as > 20 µM (inactive).
With `CCNC(=S)N/N=C/c1cc(C)n(-c2ccc(Cl)cc2)c1C` the EC50 [16] was > 29.9 µM (inactive), the IC50 [17] was 1.13 µM (active) and the EC50 [18] was 13.6 µM (inactive). The IC50 [19] was > 29.9 µM (inactive).
With `Cc1c(C(=O)Nc2ccc(Cl)cc2)c2ccccn2c1CCc1ccncc1` the IC50 [20] was 0.468 µM (active), the IC50 (Protein Tat) was > 100 µM (active) and the EC50 [21] was 2.16 µM (active). The EC50 [22] was > 30 µM (not active).
For `CNC(=O)C[C@H]1CC[C@H]2[C@@H](COc3ccc(NC(=O)C4CC4)cc3C(=O)N2C)O1`, the AC50 [23] was 2.59 µM (active).
